For eleven molecules, IC50 results are on record in patent US12673924B2, “Valiolamine derivatives as glucosidase inhibitors” (Emergent Product Development Gaithersburg Inc., priority 2021, dated 2026).

The experiment has as its target T1, recombinant alpha-glucosidase II (murine full-length glucosidase II) (Mus musculus, UniProt Q8BHN3).
T1 construct: made in house; host or cells: HEK-293T cells co-transduced with two BacMam viruses (75% alpha, 25% beta); secreted into the culture supernatant
T1 sequence (Q8BHN3 with tags, fused parts or gaps isoform Q8BHN3-2): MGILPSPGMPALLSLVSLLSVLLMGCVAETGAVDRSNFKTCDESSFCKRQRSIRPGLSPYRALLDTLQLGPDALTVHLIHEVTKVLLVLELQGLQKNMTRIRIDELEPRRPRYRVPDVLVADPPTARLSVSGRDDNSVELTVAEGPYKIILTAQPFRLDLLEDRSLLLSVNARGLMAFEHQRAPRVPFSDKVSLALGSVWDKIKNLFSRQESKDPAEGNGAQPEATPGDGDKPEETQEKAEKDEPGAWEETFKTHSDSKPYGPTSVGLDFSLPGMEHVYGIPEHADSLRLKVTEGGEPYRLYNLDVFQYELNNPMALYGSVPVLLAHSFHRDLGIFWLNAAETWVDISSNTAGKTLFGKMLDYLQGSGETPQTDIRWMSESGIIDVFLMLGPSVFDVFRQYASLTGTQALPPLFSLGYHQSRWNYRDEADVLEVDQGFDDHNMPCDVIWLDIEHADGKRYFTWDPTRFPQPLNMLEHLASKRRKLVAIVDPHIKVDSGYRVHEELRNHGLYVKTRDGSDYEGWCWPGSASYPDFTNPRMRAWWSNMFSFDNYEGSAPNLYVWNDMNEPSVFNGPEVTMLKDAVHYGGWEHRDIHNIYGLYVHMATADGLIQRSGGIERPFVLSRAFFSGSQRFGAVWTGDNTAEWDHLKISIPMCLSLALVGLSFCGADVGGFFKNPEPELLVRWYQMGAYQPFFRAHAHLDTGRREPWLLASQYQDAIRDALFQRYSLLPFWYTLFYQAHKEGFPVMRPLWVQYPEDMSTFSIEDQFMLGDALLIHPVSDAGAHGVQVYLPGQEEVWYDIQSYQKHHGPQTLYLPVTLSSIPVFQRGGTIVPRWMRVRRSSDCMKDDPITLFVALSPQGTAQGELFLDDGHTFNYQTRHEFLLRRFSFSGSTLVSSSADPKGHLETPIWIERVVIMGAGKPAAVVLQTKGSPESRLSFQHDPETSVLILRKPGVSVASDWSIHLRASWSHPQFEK
T1 sequence (O08795 with tags, fused parts or gaps partner limits assumed): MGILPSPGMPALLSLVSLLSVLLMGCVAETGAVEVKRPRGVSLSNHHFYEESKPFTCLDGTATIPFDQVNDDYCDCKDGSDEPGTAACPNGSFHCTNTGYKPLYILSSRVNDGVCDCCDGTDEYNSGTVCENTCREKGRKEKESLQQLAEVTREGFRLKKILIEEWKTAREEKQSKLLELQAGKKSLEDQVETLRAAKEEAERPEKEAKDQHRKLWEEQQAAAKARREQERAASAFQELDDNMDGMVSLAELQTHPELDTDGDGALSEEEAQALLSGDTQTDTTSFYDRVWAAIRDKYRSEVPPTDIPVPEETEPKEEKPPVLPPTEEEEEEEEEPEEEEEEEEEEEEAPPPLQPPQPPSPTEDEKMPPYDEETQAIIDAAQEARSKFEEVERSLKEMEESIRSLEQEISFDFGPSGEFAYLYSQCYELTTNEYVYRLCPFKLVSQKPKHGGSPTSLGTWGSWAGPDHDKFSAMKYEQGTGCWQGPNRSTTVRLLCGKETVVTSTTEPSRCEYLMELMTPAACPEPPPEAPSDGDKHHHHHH
Briefly: Alpha-glucosidase II assay. Particulars: 4-methylumbelliferyl-alpha-D-pyranoside substrate, read-out: aGlc2 IC50. The format is biochemical. An excerpt: Preparation of Murine Full-length Glucosidase II: Glucosidase is a heterodimeric protein consisting of alpha and beta subunits. […] A single construct was designed for each of the subunits for gene synthesis and cloning into Gateway entry vectors. The alpha subunit was appended with a Strep-affinity tag and the beta subunit was appended with a 6-His affinity tag. The entry vectors were cloned into Kemp Protein's BacMam Destination vector and the vectors were transformed into chemically competent DH10Bac E. coli cells to produce recombinant glucosidase II bacmids. Bacmid isolates for each of the subunits were obtained following two rounds of blue-white screening and they were transfected into Sf9 cells cultivated in serum-free medium (Thermo Fisher Scientific). MOI of 10 with a ratio of 75% alpha subunit and 25% beta subunit was selected for expression of glucosidase II. […] Productions and purifications of glucosidase II were carried out at scales ranging from 1-liter to 10-liters. […] In another example, production at the 10-liter scale was performed in stirred-tank bioreactors at 27° C. and 80 rpm with dissolved oxygen level maintained at 50% of oxygen in air and pH maintained between 7.0 and 7.2. For both subunits, the cells were transduced using a total MOI of 10 (75% alpha and 25% beta) and the culture supernatant was harvested at 96 hours post-transduction using centrifugation and filtration through a 0.2 micron filter.
The supernatant from a 10-liter culture was placed in a stir-jar and 25 mL of Nickel-SEPHAROSE Excel resin (GE) was added. The supernatant was stirred overnight at 25 rpm and 4° C. and the resin was collected into a column (26 mm×60 mm) and washed with 8 CV of 2×DPBS at pH 7.4. The glucosidase II protein was eluted using a linear gradient of 0-60% of 2×DPBS and 500 mM imidazole at pH 7.4. Fractions (10 mL) were collected and analyzed by SDS PAGE and Western Blot (reducing anti-His and anti-Strep). Fractions containing purified glucosidase II were pooled and concentrated for application to a SUPERDEX 200 (26 mm×600 mm) column (GE). The column buffer was PBS pH 7.2 and the concentrated eluate pool was loaded at a rate of 1 mL per minute. Fractions (3 mL) were collected and analyzed using SDS PAGE and Western Blot (reducing anti-His and anti-Strep). Fractions containing purified glucosidase II in PBS pH 7.2 were pooled and concentrated to 1 mg/mL. The final product was filter sterilized and stored at 4° C.
Alpha-glucosidase II Assay: The assay was performed by incubating recombinant enzyme alpha-glucosidase II for 60 minutes at 37° C. with multiple dilutions of test compounds. 4-methylumbelliferyl-alpha-D-pyranoside was then introduced as the substrate to the mixture. Fluorogenic 1,4-methyllumbelliferone was generated, and the reaction was stopped with the stop solution (0.5 M glycine, 0.3 M NaOH pH 10) after an incubation of 30 minutes at 37° C. […] Percent inhibition was then plotted as a function of concentration for each test compound.

By IC50 is commonly meant the concentration that inhibits the measured activity by half. Turning to `COCCCCCCCCCN[C@H]1C[C@](O)(CO)[C@@H](O)[C@H](O)[C@H]1O` [Compound 3, (1S,2S,3R,4S,5S)-1-(hydroxymethyl)-5-((9-methoxynonyl)amino)cyclohexane-1,2,3,4-tetraol], the IC50 was 490 nM.
In the case of `N[C@H]1C[C@](O)(CO)[C@@H](O)[C@H](O)[C@H]1O` [Valiolamine] it was over 100000 nM.
Under `O=[N+]([O-])c1cc(-n2cnnn2)ccc1NCCCCCCN[C@H]1C[C@](O)(CO)[C@@H](O)[C@H](O)[C@H]1O` [Compound 4, (1S,2S,3R,4S,5S)-1-(hydroxymethyl)-5-((6-((2-nitro-4-(1H-tetrazol-1-yl)phenyl)amino)hexyl)amino)cyclohexane-1,2,3,4-tetraol] stands 1420 nM; under `[N-]=[N+]=Nc1ccc(NCCCCCCN[C@H]2C[C@](O)(CO)[C@@H](O)[C@H](O)[C@H]2O)c([N+](=O)[O-])c1` [Compound 2, (1S,2S,3R,4S,5S)-5-((6-((4-azido-2-nitrophenyl)amino)hexyl)amino)-1-(hydroxymethyl)cyclohexane-1,2,3,4-tetraol], 33.7 nM; under `O=C(O)CCCCN[C@H]1C[C@](O)(CO)[C@@H](O)[C@H](O)[C@H]1O` [Compound 11, 5-(((1S,2S,3R,4S,5S)-2,3,4,5-tetrahydroxy-5-(hydroxymethyl)cyclohexyl)amino)pentanoic acid], over 100000 nM.
Under `O=[N+]([O-])c1cc(-n2nccn2)ccc1NCCCCCCN[C@H]1C[C@](O)(CO)[C@@H](O)[C@H](O)[C@H]1O` [Compound 5, (1S,2S,3R,4S,5S)-1-(hydroxymethyl)-5-((6-((2-nitro-4-(2H-1,2,3-triazol-2-yl)phenyl)amino)hexyl)amino)cyclohexane-1,2,3,4-tetraol] stands under 1 nM; under `O=[N+]([O-])c1cc(-n2ccnn2)ccc1NCCCCCCN[C@H]1C[C@](O)(CO)[C@@H](O)[C@H](O)[C@H]1O` [Compound 6, (1S,2S,3R,4S,5S)-1-(hydroxymethyl)-5-((6-((2-nitro-4-(1H-1,2,3-triazol-1-yl)phenyl)amino)hexyl)amino)cyclohexane-1,2,3,4-tetraol], 15.5 nM; under `[N-]=[N+]=Nc1ccc(NCCCCN[C@H]2C[C@](O)(CO)[C@@H](O)[C@H](O)[C@H]2O)c([N+](=O)[O-])c1` [Compound 8, (1S,2S,3R,4S,5S)-5-((4-((4-azido-2-nitrophenyl)amino)butyl)amino)-1-(hydroxymethyl)cyclohexane-1,2,3,4-tetraol], 1010 nM.
As to `O=[N+]([O-])c1cc(-c2ncccn2)ccc1NCCCCCCN[C@H]1C[C@](O)(CO)[C@@H](O)[C@H](O)[C@H]1O` [Compound 7, (1S,2S,3R,4S,5S)-1-(hydroxymethyl)-5-((6-((2-nitro-4-(pyrimidin-2-yl)phenyl)amino)hexyl)amino)cyclohexane-1,2,3,4-tetraol], the IC50 is 1.1 nM.
For the molecule `[N-]=[N+]=Nc1ccc(NCCCCCN[C@H]2C[C@](O)(CO)[C@@H](O)[C@H](O)[C@H]2O)c([N+](=O)[O-])c1` [Compound 9, (1S,2S,3R,4S,5S)-5-((5-((4-azido-2-nitrophenyl)amino)pentyl)amino)-1-(hydroxymethyl)cyclohexane-1,2,3,4-tetraol], the IC50 was 27 nM.
Take `[N-]=[N+]=Nc1ccc(NCCOCCN[C@H]2C[C@](O)(CO)[C@@H](O)[C@H](O)[C@H]2O)c([N+](=O)[O-])c1` [Compound 10, (1S,2S,3R,4S,5S)-5-((2-(2-((4-azido-2-nitrophenyl)amino)ethoxy)ethyl)amino)-1-(hydroxymethyl)cyclohexane-1,2,3,4-tetraol]: the IC50 was determined as 37000 nM.
